Measured values: patent US20080019931A1, “Method and composition for producing enhanced fingernails” (PROSTRONG, INC, priority 2004, published 2008)

Assay: Solubility in water
Type: physicochemical

**Q.** With `O=P([O-])([O-])P(=O)([O-])[O-].[Ca+2].[Ca+2]` [Calcium Hypophosphate] as the molecule, how does the solubility in water read?
**A.** soluble in water
